Experimental data taken from ChEMBL document CHEMBL3044672, “N9- and N7-(Chloromethyl Phenymethyl)Chloropurine Derivatives from , '-Dichloroxylenes: Synthesis and Anticancer Activity” (2005).

Columns and labels:
Format in all cases: functional
OVCAR-5 = assay: Cytotoxicity against Homo sapiens (human) OVCAR5 cells after 48 hr by sulforhodamine B assay; conditions: OVCAR-5, 48 h; for CC50: read-out: LC50 (the source's name)
CAKI-1 = assay: Cytotoxicity against Homo sapiens (human) Caki1 cells after 48 hr by sulforhodamine B assay; conditions: CAKI-1, 48 h; for CC50: read-out: LC50 (the source's name)
SNB-19 = assay: Cytotoxicity against Homo sapiens (human) SNB19 cells after 48 hr by sulforhodamine B assay; conditions: SNB-19, 48 h
COLO 205 = assay: Cytotoxicity against Homo sapiens (human) COLO205 cells after 48 hr by sulforhodamine B assay; conditions: COLO 205, 48 h; for CC50: read-out: LC50 (the source's name)
BT-549 = assay: Cytotoxicity against Homo sapiens (human) BT549 cells after 48 hr by sulforhodamine B assay; conditions: BT-549, 48 h
SF-268 [1] = assay: Cytotoxicity against Homo sapiens (human) SF268 cells after 48 hr by sulforhodamine B assay; conditions: SF-268, 48 h; for CC50: read-out: LC50 (the source's name)
SW-620 = assay: Cytotoxicity against Homo sapiens (human) SW620 cells after 48 hr by sulforhodamine B assay; conditions: SW-620, 48 h
SF-268 [2] = assay: Cytotoxicity against Homo sapiens (human) SF268 cells assessed as cell growth at 10^-4 M after 48 hr by […] assay; conditions: SF-268, 48 h, read-out: Activity
OVCAR-3 = assay: Cytotoxicity against Homo sapiens (human) OVCAR3 cells after 48 hr by sulforhodamine B assay; conditions: OVCAR-3, 48 h
SF-539 = assay: Cytotoxicity against Homo sapiens (human) SF539 cells after 48 hr by sulforhodamine B assay; conditions: SF-539, 48 h
SK-MEL-2 = assay: Cytotoxicity against Homo sapiens (human) SK-MEL-2 cells after 48 hr by sulforhodamine B assay; conditions: SK-MEL-2, 48 h
786-0 = assay: Cytotoxicity against Homo sapiens (human) 786-0 cells after 48 hr by sulforhodamine B assay; conditions: 786-0, 48 h
NCI-H322M = assay: Cytotoxicity against Homo sapiens (human) NCI-H322M cells after 48 hr by sulforhodamine B assay; conditions: for CC50: read-out: LC50 (the source's name)
RXF 393 = assay: Cytotoxicity against Homo sapiens (human) RXF393 cells after 48 hr by sulforhodamine B assay; conditions: RXF 393, 48 h; for CC50: read-out: LC50 (the source's name)
SF-295 = assay: Cytotoxicity against Homo sapiens (human) SF295 cells after 48 hr by sulforhodamine B assay; conditions: SF-295, 48 h; for CC50: read-out: LC50 (the source's name)
SK-OV-3 = assay: Cytotoxicity against Homo sapiens (human) SKOV3 cells after 48 hr by sulforhodamine B assay; conditions: SK-OV-3, 48 h
OVCAR-8 = assay: Cytotoxicity against Homo sapiens (human) OVCAR8 cells after 48 hr by sulforhodamine B assay; conditions: OVCAR-8, 48 h
MDA-MB-231 = assay: Cytotoxicity against Homo sapiens (human) MDA-MB-231 cells after 48 hr by sulforhodamine B assay; conditions: MDA-MB-231, 48 h
EKVX = assay: Cytotoxicity against Homo sapiens (human) EKVX cells after 48 hr by sulforhodamine B assay; conditions: for CC50: read-out: LC50 (the source's name)
UACC-62 = assay: Cytotoxicity against Homo sapiens (human) UACC62 cells after 48 hr by sulforhodamine B assay; conditions: UACC-62, 48 h
HOP-62 = assay: Cytotoxicity against Homo sapiens (human) HOP62 cells after 48 hr by sulforhodamine B assay; conditions: HOP-62, 48 h; for CC50: read-out: LC50 (the source's name)
NCI-H522 = assay: Cytotoxicity against Homo sapiens (human) NCI-H522 cells after 48 hr by sulforhodamine B assay; conditions: NCI-H522, 48 h; for CC50: read-out: LC50 (the source's name)
MOLT-4 = assay: Cytotoxicity against Homo sapiens (human) MOLT4 cells after 48 hr by sulforhodamine B assay; conditions: MOLT-4, 48 h
CCRF-CEM = assay: Cytotoxicity against Homo sapiens (human) CCRF-CEM cells after 48 hr by sulforhodamine B assay
ACHN = assay: Cytotoxicity against Homo sapiens (human) ACHN cells after 48 hr by sulforhodamine B assay
HCT-116 = assay: Cytotoxicity against Homo sapiens (human) HCT116 cells after 48 hr by sulforhodamine B assay; conditions: HCT-116, 48 h
[3] = read-out: LC50 (the source's name)

Work on `ClCc1ccc(Cn2cnc3ncnc(Cl)c32)cc1` yielded a GI50 (OVCAR-5) of 6.3 µM, a TGI (OVCAR-5) of 19.5 µM and a CC50 (OVCAR-5) of 45.7 µM. For the same compound, the GI50 (CAKI-1) was 1.99 µM, the TGI (CAKI-1) was 4.46 µM and the CC50 (CAKI-1) was 9.77 µM. The GI50 (SNB-19) was 1.69 µM, the LC50 (SNB-19) was 5.75 µM and the TGI (SNB-19) was 3.16 µM. It also gave a GI50 (COLO 205) of 1.9 µM, a TGI (COLO 205) of 3.8 µM and a CC50 (COLO 205) of 7.41 µM. The GI50 (BT-549) was 3.71 µM, the LC50 (50% lethal concentration) (BT-549) was 56.2 µM and the TGI (BT-549) was 17 µM. The GI50 (SF-268 [1]) was 1.65 µM, the TGI (SF-268 [1]) was 3.38 µM and the CC50 (SF-268 [1]) was 7.07 µM. The GI50 (SW-620) was 2.57 µM, the TGI (SW-620) was 7.24 µM and the CC50 (SW-620; [3]) was 32.4 µM. For the same compound, the growth at 100 µM (SF-268 [2]) was 1%, the GI50 (OVCAR-3) was 1.81 µM and the LC50 (OVCAR-3) was 6.3 µM. The TGI (OVCAR-3) was 3.38 µM, the GI50 (SF-539) was 2.08 µM and the LC50 (concentration killing 50% of cells) (SF-539) was 6.76 µM. The TGI (SF-539) was 3.71 µM, the GI50 (SK-MEL-2) was 6.3 µM and the LC50 (concentration killing 50% of cells) (SK-MEL-2) was over 100 µM. For the same compound, the TGI (SK-MEL-2) was over 100 µM, the GI50 (786-0) was 1.69 µM and the LC50 (786-0) was 5.49 µM. For the same compound, the TGI (786-0) was 3.01 µM, the GI50 (NCI-H322M) was 1.62 µM and the TGI (NCI-H322M) was 3.01 µM. For the same compound, the CC50 (NCI-H322M) was 5.62 µM, the GI50 (RXF 393) was 1.65 µM and the TGI (RXF 393) was 4.16 µM. It also gave a CC50 (RXF 393) of 12 µM, a GI50 (SF-295) of 2.04 µM and a TGI (SF-295) of 5.01 µM. For the same compound, the CC50 (SF-295) was 17 µM, the GI50 (SK-OV-3) was 11.2 µM and the LC50 (SK-OV-3) was 47.9 µM. It also gave a TGI (SK-OV-3) of 23.4 µM, a GI50 (OVCAR-8) of 3.16 µM and an LC50 (concentration killing 50% of cells) (OVCAR-8) of 56.2 µM. It also gave a TGI (OVCAR-8) of 11 µM, a GI50 (MDA-MB-231) of 1.77 µM and an LC50 (MDA-MB-231) of 6.3 µM. For the same compound, the TGI (MDA-MB-231) was 3.38 µM, the GI50 (EKVX) was 2.23 µM and the TGI (EKVX) was 4.46 µM. For the same compound, the CC50 (EKVX) was 8.7 µM, the GI50 (UACC-62) was 2.51 µM and the LC50 (concentration causing 50% net cell kill) (UACC-62) was 34.7 µM. It also gave a TGI (UACC-62) of 12 µM, a GI50 (HOP-62) of 1.77 µM and a TGI (HOP-62) of 3.16 µM. The CC50 (HOP-62) was 5.62 µM, the GI50 (NCI-H522) was 4.26 µM and the TGI (NCI-H522) was over 100 µM. For the same compound, the CC50 (NCI-H522) was over 100 µM.
Work on `ClCc1ccc(Cn2cnc3c(Cl)ncnc32)cc1` yielded a GI50 (OVCAR-5) of 2.95 µM, a TGI (OVCAR-5) of 9.23 µM and a CC50 (OVCAR-5) of 34.7 µM. The GI50 (CAKI-1) was 0.26 µM, the TGI (CAKI-1) was 0.64 µM and the CC50 (CAKI-1) was 2.39 µM. For the same compound, the GI50 (SNB-19) was 3.63 µM, the LC50 (SNB-19) was 89.1 µM and the TGI (SNB-19) was 21.9 µM. It also gave a GI50 (COLO 205) of 2.23 µM, a TGI (COLO 205) of over 100 µM and a CC50 (COLO 205) of over 100 µM. The GI50 (BT-549) was 5.62 µM, the LC50 (50% lethal concentration) (BT-549) was 57.5 µM and the TGI (BT-549) was 21.4 µM. It also gave a GI50 (SF-268 [1]) of 0.64 µM, a TGI (SF-268 [1]) of 2.88 µM and a CC50 (SF-268 [1]) of 9.33 µM. For the same compound, the growth at 100 µM (SF-268 [2]) was 26%, the GI50 (OVCAR-3) was 1.38 µM and the LC50 (OVCAR-3) was 8.91 µM. The TGI (OVCAR-3) was 3.54 µM, the LC50 (concentration killing 50% of cells) (SF-539) was 70.8 µM and the GI50 (SK-MEL-2) was 4.36 µM. The LC50 (concentration killing 50% of cells) (SK-MEL-2) was over 100 µM, the TGI (SK-MEL-2) was over 100 µM and the GI50 (MOLT-4) was 4.78 µM. The TGI (MOLT-4) was over 100 µM, the CC50 (MOLT-4; [3]) was over 100 µM and the GI50 (786-0) was 1.02 µM. For the same compound, the LC50 (786-0) was 21.4 µM, the TGI (786-0) was 3.98 µM and the GI50 (NCI-H322M) was 1.82 µM. The TGI (NCI-H322M) was 4.16 µM, the CC50 (NCI-H322M) was 9.33 µM and the GI50 (RXF 393) was 2.3 µM. It also gave a TGI (RXF 393) of 5.49 µM, a CC50 (RXF 393) of over 100 µM and a GI50 (SF-295) of 0.27 µM. For the same compound, the TGI (SF-295) was 3.46 µM, the CC50 (SF-295) was 24 µM and the GI50 (SK-OV-3) was 3.38 µM. For the same compound, the LC50 (SK-OV-3) was 91.2 µM, the TGI (SK-OV-3) was 13.8 µM and the GI50 (OVCAR-8) was 3.02 µM. The LC50 (concentration killing 50% of cells) (OVCAR-8) was 64.6 µM, the TGI (OVCAR-8) was 15.1 µM and the GI50 (MDA-MB-231) was 1.77 µM. For the same compound, the LC50 (MDA-MB-231) was 8.7 µM, the TGI (MDA-MB-231) was 3.89 µM and the GI50 (CCRF-CEM) was 0.51 µM. The TGI (CCRF-CEM) was over 100 µM, the CC50 (CCRF-CEM; [3]) was over 100 µM and the GI50 (EKVX) was 2.45 µM. The TGI (EKVX) was 6.92 µM, the CC50 (EKVX) was 38.9 µM and the GI50 (ACHN) was 0.31 µM. For the same compound, the TGI (ACHN) was 1.28 µM, the CC50 (ACHN; [3]) was 3.8 µM and the GI50 (HCT-116) was 1.12 µM. It also gave a TGI (HCT-116) of 2.45 µM, a CC50 (HCT-116; [3]) of 25.1 µM and a GI50 (UACC-62) of 1.23 µM. For the same compound, the LC50 (concentration causing 50% net cell kill) (UACC-62) was 9.45 µM, the TGI (UACC-62) was 33.9 µM and the GI50 (HOP-62) was 1.94 µM. The TGI (HOP-62) was 6.76 µM, the CC50 (HOP-62) was 32.4 µM and the GI50 (NCI-H522) was 3.54 µM. For the same compound, the TGI (NCI-H522) was over 100 µM and the CC50 (NCI-H522) was over 100 µM.
